# Test results: the supplement of paper PMC11061612
# Key:
# Assay in all cases: Bliss excess, mean over the matrix (fraction); higher = more synergy
# [1] = tested on: PC-14 (Lung Adenocarcinoma)
# Outline: (§1)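 Cell lines in DMEM/F12 or RPMI with 10% FBS were plated in 1536-well plates, held 24 hours at 37°C, 5% CO2, then given two-drug dose matrices for 72 hours (DMSO typically 0.2%). Viability was read by CellTiter-Glo 2.0 luminescence and scaled as inhibition from 0 (vehicle wells) to 1 (blank wells). Combination Emax is the second-highest inhibition in the matrix; Bliss excess is observed combination effect minus expected EA + EB − EA·EB, EA and EB being single-agent effects.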
# [2] = tested on: OV-90 (Ovarian Carcinoma)
# Outline: as §1
# RT4 (Bladder Carcinoma) = tested on: RT4 (Bladder Carcinoma)
# Outline: as §1
# [3] = tested on: HSC-3 (Oral Cavity Carcinoma)
# Outline: as §1
# [4] = tested on: RERF-LC-KJ (Lung Adenocarcinoma)
# Outline: as §1
# [5] = tested on: OVTOKO (Ovarian Carcinoma)
# Outline: as §1
# [6] = tested on: AsPC-1 (Pancreatic Carcinoma)
# Outline: as §1
# [7] = tested on: SJRH30 (Rhabdomyosarcoma)
# Outline: as §1
# [8] = tested on: NCI-H810 (Non-Small Cell Lung Carcinoma)
# Outline: as §1
# [9] = tested on: COLO-684 (Endometrial Carcinoma)
# Outline: as §1
# KYM-1 (Rhabdomyosarcoma) = tested on: KYM-1 (Rhabdomyosarcoma)
# Outline: as §1
# [10] = tested on: BALL-1 (B-Lymphoblastic Leukemia)
# Outline: as §1
# [11] = tested on: NCI-H1155 (Non-Small Cell Lung Carcinoma)
# Outline: as §1
# [12] = tested on: HTC-C3 (Thyroid Gland Carcinoma)
# Outline: as §1
# [13] = tested on: RPMI-8866 (Chronic Myelogenous Leukemia)
# Outline: as §1
# [14] = tested on: KYSE-70 (Esophageal Squamous Cell Carcinoma)
# Outline: as §1
# [15] = tested on: EB-3 (Burkitt's Lymphoma)
# Outline: as §1
# [16] = tested on: AN3-CA (Endometrial Carcinoma)
# Outline: as §1
# [17] = tested on: NCI-H1755 (Lung Adenocarcinoma)
# Outline: as §1
# [18] = tested on: SNU-175 (Colorectal Carcinoma)
# Outline: as §1
Compound,Bliss excess [1],Bliss excess [2],Bliss excess (RT4 (Bladder Carcinoma)),Bliss excess [3],Bliss excess [4],Bliss excess [5],Bliss excess [6],Bliss excess [7],Bliss excess [8],Bliss excess [9],Bliss excess (KYM-1 (Rhabdomyosarcoma)),Bliss excess [10],Bliss excess [11],Bliss excess [12],Bliss excess [13],Bliss excess [14],Bliss excess [15],Bliss excess [16],Bliss excess [17],Bliss excess [18]
"Cn1cnc2c(F)c(Nc3ccc(Br)cc3Cl)c(C(=O)NOCCO)cc21 [Selumetinib] + C[C@@H]1COCCN1C2=NC(=NC(=C2)C3(CC3)[S@](=N)(=O)C)C4=C5C=CNC5=NC=C4 [AZD6738] (first compound max 10 µM, 7x7, partner max 10 µM)",-0.0022,0.0049,-0.0036,0.0049,0.0075,-0.0278,0.0716,-0.0293,-0.0707,-0.0474,-0.033,-0.0066,-0.0028,-0.0072,-0.0129,-0.0408,-0.069,0.0359,0.012,0.0644
"COc1cc2c(cc1OCCCCCOc1cc3c(cc1OC)C(=O)N1C=C(C)C[C@H]1C=N3)N=C[C@@H]1CC(C)=CN1C2=O [SG3199] + O=C(c1cc(Cc2n[nH]c(=O)c3ccccc23)ccc1F)N1CCN(C(=O)C2CC2)CC1 [Olaparib] (first compound max 0.001 µM, 7x7, partner max 10 µM)",-0.0274,-0.0422,-0.0164,-0.0067,-0.0235,-0.0476,-0.0535,0.0009,-0.0368,-0.0286,-0.0201,0.0476,0.0119,-0.013,-0.0032,-0.0227,-0.0509,-0.0292,-0.0207,-0.0317
"NC1(C(=O)N[C@@H](CCO)c2ccc(Cl)cc2)CCN(c2ncnc3[nH]ccc23)CC1 [Capivasertib] + CCN(CCO)CCCOc1ccc2c(Nc3cc(CC(=O)Nc4cccc(F)c4)[nH]n3)ncnc2c1 [AZD2811] (first compound max 10 µM, 7x7, partner max 1 µM)",0.028,-0.0272,-0.0039,-0.0374,-0.0135,-0.0109,-0.0655,0.0224,-0.0195,0.0272,-0.0457,0.0356,-0.0152,-0.015,0.0469,-0.0902,0.0152,0.0151,-0.0289,0.0058
"CCc1c2c(nc3ccc(O)cc13)-c1cc3c(c(=O)n1C2)COC(=O)[C@]3(O)CC [SN-38] + CN(C)CCCOc1ccc(-c2ccc3ncc4c(c3c2)n(C2CCOCC2)c(=O)n4C)cn1 [AZD0156] (first compound max 0.3 µM, 7x7, partner max 1 µM)",0.0407,-0.012,-0.0184,-0.0063,-0.083,-0.0523,-0.029,0.0722,-0.0022,-0.0265,0.0465,0.0492,0.0268,0.105,0.0969,0.0487,-0.0659,-0.0446,0.0829,0.0229
"Cc1cc2ncnn2cc1Nc1ncc2c(n1)n(C1CCOCC1)c(=O)n2C [AZD7648] + O=C(c1cc(Cc2n[nH]c(=O)c3ccccc23)ccc1F)N1CCN(C(=O)C2CC2)CC1 [Olaparib] (first compound max 10 µM, 7x7, partner max 10 µM)",-0.0245,-0.0419,0.0016,-0.0102,-0.0546,-0.0433,-0.0567,-0.0148,-0.0482,-0.0054,-0.0078,0.0624,-0.0235,-0.0224,0.0298,-0.0528,-0.0401,-0.0738,-0.0464,-0.025
"NC1(C(=O)N[C@@H](CCO)c2ccc(Cl)cc2)CCN(c2ncnc3[nH]ccc23)CC1 [Capivasertib] + COc1nnc2ccc(N3CCC(c4ccc(OCCN5CCN(C)C(=O)[C@H]5C)cc4)CC3)nn12 [AZD5153] (first compound max 10 µM, 7x7, partner max 1 µM)",0.0461,0.0045,-0.0021,0.0078,-0.0437,0.0497,-0.0273,0.0117,0.0078,-0.0133,-0.0306,-0.0339,0.0992,0.0265,-0.0511,-0.0109,-0.0529,0.0778,-0.0278,-0.055
"Cn1cnc2c(F)c(Nc3ccc(Br)cc3Cl)c(C(=O)NOCCO)cc21 [Selumetinib] + CCN(CCO)CCCOc1ccc2c(Nc3cc(CC(=O)Nc4cccc(F)c4)[nH]n3)ncnc2c1 [AZD2811] (first compound max 10 µM, 7x7, partner max 1 µM)",0.0372,-0.0252,-0.0816,-0.0877,-0.003,-0.0303,0.0032,-0.0008,-0.037,-0.0211,-0.0102,0.0638,0.0907,-0.0228,0.0543,0.0047,-0.0415,0.0242,0.0386,-0.0253
